Reference: ChEMBL document CHEMBL1275550, “In vitro activity of doripenem, a carbapenem for the treatment of challenging infections caused by gram-negative bacteria, against recent clinical isolates from the United States” (2008)
Converted amounts (≈) assume the structure as drawn.

Key:
Acinetobacter [1] = test: Antimicrobial activity against Acinetobacter assessed as susceptible isolate by broth microdilution method; type: functional
Citrobacter [2] = test: Antimicrobial activity against Citrobacter with derepressed AmpC beta-lactamsae by broth microdilution method; type: functional
Proteus mirabilis [3] = test: Antimicrobial activity against ESBL producing Proteus mirabilis by broth microdilution method; type: functional
Streptococcus pneumoniae [4] = test: Antimicrobial activity against […] assessed as susceptible isolate by broth microdilution method; type: functional
Pseudomonas aeruginosa [5] = test: Antimicrobial activity against Ceftazidime susceptible Pseudomonas aeruginosa assessed as resistant isolate by broth microdilution method; type: functional
Staphylococcus aureus = test: Antimicrobial activity against methicillin-susceptible Staphylococcus aureus assessed as susceptible isolate by broth microdilution method; type: functional
Enterobacter cloacae [6] = test: Antimicrobial activity against Enterobacter cloacae with derepressed AmpC beta-lactamsae by broth microdilution method; type: functional
Enterobacteriaceae [7] = test: Antimicrobial activity against Enterobacteriaceae assessed as intermediate isolate by broth microdilution method; type: functional
Escherichia coli [8] = test: Antimicrobial activity against Escherichia coli assessed as intermediate isolate by broth microdilution method; type: functional
Pseudomonas aeruginosa [9] = test: Antimicrobial activity against imipenem non-susceptible Pseudomonas aeruginosa assessed as resistant isolate by broth microdilution method; type: functional
Pseudomonas aeruginosa [10] = test: Antimicrobial activity against Pseudomonas aeruginosa isolated from ICU patient assessed as susceptible isolate by broth microdilution method
Serratia marcescens [11] = test: Antimicrobial activity against Ceftazidime susceptible Serratia marcescens by broth microdilution method; type: functional
Klebsiella pneumoniae [12] = test: Antimicrobial activity against Klebsiella pneumoniae assessed as intermediate isolate by broth microdilution method; type: functional
Klebsiella pneumoniae [13] = test: Antimicrobial activity against ESBL producing Klebsiella pneumoniae assessed as intermediate isolate by broth microdilution method; type: functional
Klebsiella pneumoniae [14] = test: Antimicrobial activity against ESBL producing Klebsiella pneumoniae assessed as resistant isolate by broth microdilution method; type: functional
Escherichia coli [15] = test: Antimicrobial activity against Non-ESBL Escherichia coli by broth microdilution method; type: functional
Pseudomonas aeruginosa [16] = test: Antimicrobial activity against imipenem non-susceptible Pseudomonas aeruginosa by broth microdilution method; type: functional
Pseudomonas aeruginosa [17] = test: Antimicrobial activity against Ceftazidime non-susceptible Pseudomonas aeruginosa assessed as intermediate isolate by broth microdilution method; type: functional
Pseudomonas aeruginosa [18] = test: Antimicrobial activity against Ceftazidime susceptible Pseudomonas aeruginosa by broth microdilution method; type: functional
Enterobacteriaceae [19] = test: Antimicrobial activity against Enterobacteriaceae by broth microdilution method; type: functional
Klebsiella pneumoniae [20] = test: Antimicrobial activity against ESBL producing Klebsiella pneumoniae assessed as susceptible isolate by broth microdilution method; type: functional
Enterobacter cloacae [21] = test: Antimicrobial activity against Enterobacter cloacae with derepressed AmpC beta-lactamsae assessed as susceptible isolate by broth microdilution method; type: functional
Staphylococcus = test: Antimicrobial activity against methicillin-susceptible coagulase-negative Staphylococcus by broth microdilution method; type: functional
Escherichia coli [22] = test: Antimicrobial activity against ESBL producing Escherichia coli by broth microdilution method; type: functional
Pseudomonas aeruginosa [23] = test: Antimicrobial activity against Pseudomonas aeruginosa isolated from ICU patient assessed as resistant isolate by broth microdilution method
Acinetobacter [24] = test: Antimicrobial activity against Acinetobacter assessed as resistant isolate by broth microdilution method; type: functional
Serratia marcescens [25] = test: Antimicrobial activity against Ceftazidime susceptible Serratia marcescens assessed as resistant isolate by broth microdilution method; type: functional
Serratia marcescens [26] = test: Antimicrobial activity against Ceftazidime non-susceptible Serratia marcescens by broth microdilution method; type: functional
Enterobacteriaceae [27] = test: Antimicrobial activity against Ceftazidime non-susceptible Enterobacteriaceae assessed as intermediate isolate by broth microdilution method; type: functional
Acinetobacter [28] = test: Antimicrobial activity against imipenem non-susceptible Acinetobacter assessed as susceptible isolate by broth microdilution method; type: functional
Acinetobacter [29] = test: Antimicrobial activity against imipenem non-susceptible Acinetobacter assessed as intermediate isolate by broth microdilution method; type: functional
Citrobacter [30] = test: Antimicrobial activity against Citrobacter with derepressed AmpC beta-lactamsae assessed as intermediate isolate by broth microdilution method; type: functional
Acinetobacter [31] = test: Antimicrobial activity against imipenem non-susceptible Acinetobacter by broth microdilution method; type: functional
Enterobacter cloacae [32] = test: Antimicrobial activity against Enterobacter cloacae with nonderepressed AmpC beta-lactamsae assessed as intermediate isolate by broth microdilution method; type: functional
Pseudomonas aeruginosa [33] = test: Antimicrobial activity against Ceftazidime non-susceptible Pseudomonas aeruginosa by broth microdilution method; type: functional
Pseudomonas aeruginosa [34] = test: Antimicrobial activity against imipenem non-susceptible Pseudomonas aeruginosa assessed as intermediate isolate by broth microdilution method; type: functional
Pseudomonas aeruginosa [35] = test: Antimicrobial activity against Ceftazidime non-susceptible Pseudomonas aeruginosa assessed as resistant isolate by broth microdilution method; type: functional
Escherichia coli [36] = test: Antimicrobial activity against Escherichia coli by broth microdilution method; type: functional
Escherichia coli [37] = test: Antimicrobial activity against Escherichia coli assessed as susceptible isolate by broth microdilution method; type: functional
Escherichia coli [38] = test: Antimicrobial activity against Non-ESBL Escherichia coli assessed as susceptible isolate by broth microdilution method; type: functional
Proteus mirabilis [39] = test: Antimicrobial activity against Non-ESBL Proteus mirabilis assessed as susceptible isolate by broth microdilution method; type: functional
Proteus mirabilis [40] = test: Antimicrobial activity against Proteus mirabilis assessed as susceptible isolate by broth microdilution method; type: functional
Pseudomonas aeruginosa [41] = test: Antimicrobial activity against Pseudomonas aeruginosa isolated from non-ICU patient assessed as resistant isolate by broth microdilution method
Pseudomonas aeruginosa [42] = test: Antimicrobial activity against Pseudomonas aeruginosa isolated from ICU patient assessed as intermediate isolate by broth microdilution method
Escherichia coli [43] = test: Antimicrobial activity against ESBL producing Escherichia coli assessed as intermediate isolate by broth microdilution method; type: functional
Serratia marcescens [44] = test: Antimicrobial activity against Serratia marcescens by broth microdilution method; type: functional
Proteus mirabilis [45] = test: Antimicrobial activity against ESBL producing Proteus mirabilis assessed as susceptible isolate by broth microdilution method; type: functional
Streptococcus pneumoniae [46] = test: Antimicrobial activity against penicillin-intermediate Streptococcus pneumoniae assessed as intermediate isolate by broth microdilution method; type: functional
Pseudomonas aeruginosa [47] = test: Antimicrobial activity against Ceftazidime non-susceptible Pseudomonas aeruginosa assessed as susceptible isolate by broth microdilution method; type: functional
Enterobacteriaceae [48] = test: Antimicrobial activity against ceftazidime-susceptible Enterobacteriaceae assessed as resistant isolate by broth microdilution method; type: functional
Citrobacter [49] = test: Antimicrobial activity against Citrobacter by broth microdilution method; type: functional

`C[C@@H](O)[C@H]1C(=O)N2C(C(=O)O)=C(S[C@@H]3CN[C@H](C(=O)N(C)C)C3)[C@H](C)[C@H]12` [MEROPENEM] was tested, and the Activity (Acinetobacter [1]) was 80.6%, the MIC50 (Citrobacter [2]) was 0.12 µg/mL (≈ 0.313 µM) and the MIC90 (Citrobacter [2]) was 0.25 µg/mL (≈ 0.652 µM). For the same molecule, the MIC (Proteus mirabilis [3]) was 0.12 µg/mL (≈ 0.313 µM), the Activity (Streptococcus pneumoniae [4]) was 100% and the Activity (Pseudomonas aeruginosa [5]) was 6.5%. The Activity (Staphylococcus aureus) was 100%, the MIC50 (Enterobacter cloacae [6]) was 0.25 µg/mL (≈ 0.652 µM) and the MIC90 (Enterobacter cloacae [6]) was 0.5 µg/mL (≈ 1.3 µM). For the same molecule, the Activity (Enterobacteriaceae [7]) was 0%, the Activity (Escherichia coli [8]) was 0% and the Activity (Pseudomonas aeruginosa [9]) was 40.6%. The Activity (Pseudomonas aeruginosa [10]) was 74.1%, the MIC50 (Serratia marcescens [11]) was 0.12 µg/mL (≈ 0.313 µM) and the MIC90 (Serratia marcescens [11]) was 0.25 µg/mL (≈ 0.652 µM). For the same molecule, the Activity (Klebsiella pneumoniae [12]) was 0%, the Activity (Klebsiella pneumoniae [13]) was 0% and the Activity (Klebsiella pneumoniae [14]) was 4.5%. For the same molecule, the MIC50 (Escherichia coli [15]) was 0.03 µg/mL (≈ 0.0782 µM), the MIC90 (Escherichia coli [15]) was 0.06 µg/mL (≈ 0.156 µM) and the MIC50 (Pseudomonas aeruginosa [16]) was 8 µg/mL (≈ 20.9 µM). The MIC90 (Pseudomonas aeruginosa [16]) was 32 µg/mL (≈ 83.4 µM), the Activity (Pseudomonas aeruginosa [17]) was 3.6% and the MIC50 (Pseudomonas aeruginosa [18]) was 1 µg/mL (≈ 2.61 µM). For the same molecule, the MIC90 (Pseudomonas aeruginosa [18]) was 8 µg/mL (≈ 20.9 µM), the MIC50 (Enterobacteriaceae [19]) was 0.06 µg/mL (≈ 0.156 µM) and the MIC90 (Enterobacteriaceae [19]) was 0.12 µg/mL (≈ 0.313 µM). It also gave an Activity (Klebsiella pneumoniae [20]) of 95.5%, an Activity (Enterobacter cloacae [21]) of 100% and an MIC50 (Staphylococcus) of 0.12 µg/mL (≈ 0.313 µM). For the same molecule, the MIC50 (Staphylococcus; Staphylococcus, read-out: MIC50) was 0.06 µg/mL (≈ 0.156 µM), the MIC50 (Escherichia coli [22]) was 0.06 µg/mL (≈ 0.156 µM) and the MIC90 (Escherichia coli [22]) was 0.06 µg/mL (≈ 0.156 µM). It also gave an Activity (Pseudomonas aeruginosa [23]) of 18%, an Activity (Acinetobacter [24]) of 18% and an Activity (Serratia marcescens [25]) of 0.8%. It also gave an MIC50 (Serratia marcescens [26]) of 0.25 µg/mL (≈ 0.652 µM), an MIC90 (Serratia marcescens [26]) of 0.25 µg/mL (≈ 0.652 µM) and an Activity (Enterobacteriaceae [27]) of 0.7%. For the same molecule, the Activity (Acinetobacter [28]) was 0%, the Activity (Acinetobacter [29]) was 0% and the Activity (Citrobacter [30]) was 0%. For the same molecule, the MIC50 (Acinetobacter [31]) was over 32 µg/mL, the MIC90 (Acinetobacter [31]) was over 32 µg/mL and the Activity (Enterobacter cloacae [32]) was 0.5%. It also gave an MIC50 (Pseudomonas aeruginosa [33]) of 4 µg/mL (≈ 10.4 µM), an MIC90 (Pseudomonas aeruginosa [33]) of 32 µg/mL (≈ 83.4 µM) and an Activity (Pseudomonas aeruginosa [34]) of 16.9%. It also gave an Activity (Pseudomonas aeruginosa [35]) of 35.5%, an MIC50 (Escherichia coli [36]) of 0.03 µg/mL (≈ 0.0782 µM) and an MIC90 (Escherichia coli [36]) of 0.06 µg/mL (≈ 0.156 µM). For the same molecule, the Activity (Escherichia coli [37]) was 100%, the Activity (Escherichia coli [38]) was 100% and the Activity (Proteus mirabilis [39]) was 100%. It also gave an Activity (Proteus mirabilis [40]) of 100%, an Activity (Pseudomonas aeruginosa [41]) of 12.4% and an Activity (Pseudomonas aeruginosa [42]) of 7.9%. The Activity (Escherichia coli [43]) was 0%, the MIC50 (Serratia marcescens [44]) was 0.12 µg/mL (≈ 0.313 µM) and the MIC90 (Serratia marcescens [44]) was 0.25 µg/mL (≈ 0.652 µM). The Activity (Proteus mirabilis [45]) was 100%, the Activity (Streptococcus pneumoniae [46]) was 83.9% and the Activity (Pseudomonas aeruginosa [47]) was 60.9%. It also gave an Activity (Enterobacteriaceae [48]) of 0.1%, an MIC50 (Citrobacter [49]) of 0.06 µg/mL (≈ 0.156 µM) and an MIC90 (Citrobacter [49]) of 0.12 µg/mL (≈ 0.313 µM).
